Read-outs that look alike come from different tables or passages of the source.
Experiments:
EGFR = test system: EGFR; parameters: method as in Elkins et al., 2016; settings: PKIS1, Caliper assay, ref Elkins et al., 2016; cited from earlier work
[1] = test system: intracellular MRSA in HeLa cells; test: Gentamicin protection assay with CFU count in MRSA-infected HeLa cells; type: cell-based, Staphylococcus aureus; settings: 10 µM, MRSA-infected HeLa cells
Description: The cells were resuspended in cell culture medium without antibiotics, seeded with 10,000 cells/well into Costar flat-bottom 96-well plates (Corning, Amsterdam, the Netherlands), and were incubated overnight at 37°C/5% CO2. The next day, the bacteria were centrifuged at ≥1800 g for 15 min and resuspended in cold PBS + 5 mM ethylenediaminetetraacetic acid (EDTA). The number of CFUs present in the bacterial suspension was estimated from the optical density at 600 nm (OD600) by assuming 8x10^8 CFUs to be present in a bacterial suspension with OD600 = 1, based on prior titrations. The bacterial suspension was diluted in cell culture medium without antibiotics and added to the cells. Accuracy of the multiplicity of infection (MOI) was validated by plating serial dilutions of the MRSA inoculums on Difco TS agar plates (BD Biosciences). The calculated mean MOI throughout all experiments was 6.8 ± 4.6 (mean ± SD). Infected cells were centrifuged for 3 min at 150 g and incubated for 1 hour at 37°C/5% CO2. Next, the cells were incubated with fresh cell culture medium supplemented with 30 µg/ml gentamicin sulphate (Lonza BioWhittaker, Basel, Switzerland) for 15 min at 37°C/5% CO2 to kill residual extracellular bacteria. Infected cells were incubated overnight at 37°C/5% CO2 in cell culture medium in the presence of kinase inhibitors and 5 µg/ml gentamicin sulphate-containing medium to prevent the growth of extracellular bacteria. The solvent of the compounds, DMSO, was used at equal % v/v as a negative control. For the screen, each compound was tested in triplicate, on separate cell culture plates, resulting in triplicate values for each kinase inhibitor.
Infected cells were lysed in sterile water + 0.05% UltraPure SDS solution (Invitrogen, ThermoFisher Scientific) to release intracellular bacteria. Bacterial suspensions and lysates of cells infected with MRSA were 5-fold serially diluted and 10-μl drops were plated on square TS agar plates. The plates were left to dry and incubated overnight at 37°C/5% CO2.

HeLa cells = test: Compound screen by flow cytometry: HeLa cell count as surrogate readout of cell viability (z-scoreHeLa); type: cell-based, human; settings: for cell count rep 1 / cell count rep 2 / cell count rep 3: PKIS compounds raw data; for cell count rep 1 / z-scoreHeLa rep 1: replicate 1; for cell count rep 2 / z-scoreHeLa rep 2: replicate 2; for cell count rep 3 / z-scoreHeLa rep 3: replicate 3; for z-scoreHeLa mean: mean of 3 replicates
Summary of the method: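 HeLa cells were infected with GFP-MRSA (mean MOI 6.8 ± 4.6) for 1 h, and extracellular bacteria were killed with 30 µg/ml gentamicin. Cells were then incubated overnight with kinase inhibitors in 5 µg/ml gentamicin, in triplicate against DMSO controls. Flow-cytometric cell count served as a viability surrogate, expressed as a plate z-score.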

HER4 = test system: HER4; parameters: method as in Elkins et al., 2016; settings: PKIS1, Caliper assay, ref Elkins et al., 2016; cited from earlier work
intracellular MRSA = type: cell-based, Staphylococcus aureus; settings: for %GFP+ rep 1 / %GFP+ rep 2 / %GFP+ rep 3: PKIS compounds raw data; for %GFP+ rep 1 / z-scoreMRSA+ rep 1: replicate 1; for %GFP+ rep 2 / z-scoreMRSA+ rep 2: replicate 2; for %GFP+ rep 3 / z-scoreMRSA+ rep 3: replicate 3; for z-scoreMRSA+ mean: mean of 3 replicates
Summary of the method: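 HeLa cells infected with GFP-MRSA (MOI ~6.8), gentamicin-cleared, then incubated overnight at 37°C with inhibitors plus 5 µg/ml gentamicin; DMSO as negative control, triplicates. Flow cytometry gave % GFP-positive cells and cell count (viability surrogate); hits by plate z-score (MRSA ≤ -2, HeLa count ≥ -3).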

HER2 = test system: HER2; parameters: method as in Elkins et al., 2016; settings: PKIS1, Caliper assay, ref Elkins et al., 2016; cited from earlier work
[2] = compound screen, HeLa cell count
[3] = Yes/No: effect without cell death
[4] = compound screen, MRSA-infected HeLa cells
[5] = PKIS compound screen, Yes/No call

## CS(=O)(=O)CCNCc1ccc(-c2ccc3ncnc(Nc4ccc(OCc5ccccc5)c(Br)c4)c3c2)o1 [GW580496A]
EGFR
  % inhibition at 1 µM EGFR: 82%
[1]
  CFU (% of DMSO) at 10 µM: 65.3 % of DMSO
HeLa cells; HeLa cell count
  cell count rep 1: 5658
  cell count rep 2: 6483
  cell count rep 3: 11366
HeLa cells; Yes/No call from z-scoreHeLa
  cell death: No
HeLa cells; [2]
  z-scoreHeLa mean: 1.53
  z-scoreHeLa rep 1: 0.80
  z-scoreHeLa rep 2: 1.67
  z-scoreHeLa rep 3: 2.11
HER4
  % inhibition at 1 µM HER4: 80%
Intracellular MRSA; MRSA-infected HeLa cells
  %GFP+ rep 1: 5.4%
  %GFP+ rep 2: 6.0%
  %GFP+ rep 3: 5.1%
Intracellular MRSA; Yes/No call from z-scoreMRSA+
  effect: Yes
Intracellular MRSA; [3]
  hit: Yes
Intracellular MRSA; [4]
  z-scoreMRSA+ mean: -2.73
  z-scoreMRSA+ rep 1: -2.50
  z-scoreMRSA+ rep 2: -2.51
  z-scoreMRSA+ rep 3: -3.18
HER2
  % inhibition at 1 µM HER2: 74%

## O=S(=O)(CCOCc1ccc(-c2ccc3ncnc(Nc4ccc(OCc5cccc(F)c5)c(Cl)c4)c3c2)o1)c1ccccc1 [GW615311X]
EGFR
  % inhibition at 1 µM EGFR: 85%
HeLa cells; HeLa cell count
  cell count rep 1: 4217
  cell count rep 2: 4665
  cell count rep 3: 7934
HeLa cells; Yes/No call from z-scoreHeLa
  cell death: No
HeLa cells; [2]
  z-scoreHeLa mean: 0.09
  z-scoreHeLa rep 1: -0.51
  z-scoreHeLa rep 2: 0.30
  z-scoreHeLa rep 3: 0.47
HER4
  % inhibition at 1 µM HER4: 73%
Intracellular MRSA; MRSA-infected HeLa cells
  %GFP+ rep 1: 14.3%
  %GFP+ rep 2: 12.7%
  %GFP+ rep 3: 13.9%
Intracellular MRSA; Yes/No call from z-scoreMRSA+
  effect: No
Intracellular MRSA; [3]
  hit: No
Intracellular MRSA; [4]
  z-scoreMRSA+ mean: -0.16
  z-scoreMRSA+ rep 1: 0.36
  z-scoreMRSA+ rep 2: -0.27
  z-scoreMRSA+ rep 3: -0.59
HER2
  % inhibition at 1 µM HER2: 70%

## CS(=O)(=O)CCN(CC#N)Cc1ccc(-c2ccc3ncnc(Nc4ccc(OCc5cccc(F)c5)c(Cl)c4)c3c2)o1 [GW616030X]
EGFR
  % inhibition at 1 µM EGFR: 77%
[1]
  CFU (% of DMSO) at 10 µM: 50.3 % of DMSO
HeLa cells; HeLa cell count
  cell count rep 1: 2826
  cell count rep 2: 3932
  cell count rep 3: 5918
HeLa cells; Yes/No call from z-scoreHeLa
  cell death: No
HeLa cells; [2]
  z-scoreHeLa mean: -0.84
  z-scoreHeLa rep 1: -1.76
  z-scoreHeLa rep 2: -0.25
  z-scoreHeLa rep 3: -0.50
HER4
  % inhibition at 1 µM HER4: 74%
Intracellular MRSA; MRSA-infected HeLa cells
  %GFP+ rep 1: 7.5%
  %GFP+ rep 2: 7.4%
  %GFP+ rep 3: 6.2%
Intracellular MRSA; Yes/No call from z-scoreMRSA+
  effect: Yes
Intracellular MRSA; [3]
  hit: Yes
Intracellular MRSA; [4]
  z-scoreMRSA+ mean: -2.24
  z-scoreMRSA+ rep 1: -1.82
  z-scoreMRSA+ rep 2: -2.03
  z-scoreMRSA+ rep 3: -2.88
HER2
  % inhibition at 1 µM HER2: 67%

## CCCN(CCS(C)(=O)=O)Cc1ccc(-c2ccc3ncnc(Nc4ccc(OCc5cccc(F)c5)c(Cl)c4)c3c2)o1 [GW621823A]
EGFR
  % inhibition at 1 µM EGFR: 78%
[1]
  CFU (% of DMSO) at 10 µM: 68.4 % of DMSO
HeLa cells; [5]
  cell death: No
HeLa cells; PKIS compound screen
  z-scoreHeLa mean: 0.59
  z-scoreHeLa rep 1: 0.17
  z-scoreHeLa rep 2: 0.58
  z-scoreHeLa rep 3: 1.02
HeLa cells; HeLa cell count
  cell count rep 1: 4961
  cell count rep 2: 5042
  cell count rep 3: 9090
HER4
  % inhibition at 1 µM HER4: 79%
Intracellular MRSA; [5]
  effect: Yes
Intracellular MRSA; PKIS compound screen, Yes/No call (effect without cell death)
  hit: Yes
Intracellular MRSA; PKIS compound screen
  z-scoreMRSA+ mean: -2.21
  z-scoreMRSA+ rep 1: -2.10
  z-scoreMRSA+ rep 2: -1.86
  z-scoreMRSA+ rep 3: -2.67
Intracellular MRSA; MRSA-infected HeLa cells
  %GFP+ rep 1: 6.6%
  %GFP+ rep 2: 7.9%
  %GFP+ rep 3: 6.9%
HER2
  % inhibition at 1 µM HER2: 82%

Reference: PMC10999543, “Identification of kinase modulators as host-directed therapeutics against intracellular methicillin-resistant Staphylococcus aureus” (Frontiers in Cellular and Infection Microbiology, 2024)
